Molecular target: bovine erythrocyte CA II (bCA-II) (Bos taurus, UniProt P00921)
Assay: In vitro carbonic anhydrase inhibition assay
Assay type: biochemical
Conditions: for % inhibition: bCA-II, substrate 4-NPA, 25 °C, pH 7.4, test concentration not given; for inhibition activity against bCA-II (in words): qualitative statement

Chain of bovine erythrocyte CA II (bCA-II) (P00921 whole entry): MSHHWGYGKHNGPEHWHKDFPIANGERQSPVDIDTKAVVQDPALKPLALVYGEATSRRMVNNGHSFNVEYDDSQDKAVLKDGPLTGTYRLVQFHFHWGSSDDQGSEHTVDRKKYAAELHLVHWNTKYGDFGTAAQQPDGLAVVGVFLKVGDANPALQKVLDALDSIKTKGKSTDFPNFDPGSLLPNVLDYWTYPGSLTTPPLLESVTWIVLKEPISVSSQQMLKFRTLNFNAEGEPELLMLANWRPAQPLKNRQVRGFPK

| IC50 [µM] | % inhibition [%] | inhibition activity against bCA-II (in words) | Structure (SMILES) |
| --- | --- | --- | --- |
| 13.3 ± 1.25 | 89.1 |  | CCCSc1nc2ccccc2n1CC(=O)NN=Cc1cccc(OC)c1O [Compound 9, N′-(2-Hydroxy-3-methoxybenzylidene)-2-(2-(propylthio)-1H-benzo[d]imidazol-1-yl)acetohydrazide] |
| 17.2 ± 1.24 | 83.0 |  | CCCSc1nc2ccccc2n1CC(=O)NN=Cc1ccccc1 [Compound 10, N′-Benzylidene-2-(2-(propylthio)-1H-benzo[d]imidazol-1-yl)acetohydrazide] |
|  | 22.8 | inactive | CCCSc1nc2ccccc2n1CC(=O)NN=Cc1cccc(OC)c1 [Compound 11, N′-(3-Methoxybenzylidene)-2-(2-(propylthio)-1H-benzo[d]imidazol-1-yl)acetohydrazide] |
| 14.6 ± 0.62 | 91.7 |  | CCCSc1nc2ccccc2n1CC(=O)NN=Cc1cccc2ccccc12 [Compound 12, N′-(Naphthalen-1-ylmethylene)-2-(2-(propylthio)-1H-benzo[d]imidazol-1-yl)acetohydrazide] |
|  | 38.1 | inactive | CCCSc1nc2ccccc2n1CC(=O)NN=Cc1ccc(OC)c(OC)c1 [Compound 13, N′-(3,4-Dimethoxybenzylidene)-2-(2-(propylthio)-1H-benzo[d]imidazol-1-yl)acetohydrazide] |
| 14.5 ± 1.05 | 91.2 |  | CCCSc1nc2ccccc2n1CC(=O)NN=Cc1ccc(OC)cc1OC [Compound 15, N′-(2,4-Dimethoxybenzylidene)-2-(2-(propylthio)-1H-benzo[d]imidazol-1-yl)acetohydrazide] |
| 31.4 ± 2.29 | 90.7 | least active inhibitors | CCCSc1nc2ccccc2n1CC(=O)NN=Cc1cccc(O)c1 [Compound 17, N′-(3-Hydroxybenzylidene)-2-(2-(propylthio)-1H-benzo[d]imidazol-1-yl)acetohydrazide] |
| 22.7 ± 1.37 | 81.2 |  | CCCSc1nc2ccccc2n1CC(=O)NN=Cc1ccc(O)c(OC)c1 [Compound 18, N′-(4-Hydroxy-3-methoxybenzylidene)-2-(2-(propylthio)-1H-benzo[d]imidazol-1-yl)acetohydrazide] |
| 162 ± 3.54 | 84.3 | least active inhibitors | CCCSc1nc2ccccc2n1CC(=O)NN=Cc1ccc(F)cc1 [Compound 24, N′-(4-Fluorobenzylidene)-2-(2-(propylthio)-1H-benzo[d]imidazol-1-yl)acetohydrazide] |
| 55.6 ± 4.25 | 89.6 | least active inhibitors | CCCSc1nc2ccccc2n1CC(=O)NN=Cc1cccc(OC)c1OC [Compound 27, N′-(2,3-Dimethoxybenzylidene)-2-(2-(propylthio)-1H-benzo[d]imidazol-1-yl)acetohydrazide] |
| 21 ± 0.74 | 88.2 |  | CCCSc1nc2ccccc2n1CC(=O)NN=Cc1ccccc1OC [Compound 29, N′-(2-Methoxybenzylidene)-2-(2-(propylthio)-1H-benzo[d]imidazol-1-yl)acetohydrazide] |

The next lines start with the compound.

| Structure (SMILES) | IC50 [µM] | % inhibition [%] | inhibition activity against bCA-II (in words) |
| --- | --- | --- | --- |
| CCCSc1nc2ccccc2n1CC(=O)NN=Cc1ccc(O)cc1O [Compound 14, N′-(2,4-Dihydroxybenzylidene)-2-(2-(propylthio)-1H-benzo[d]imidazol-1-yl)acetohydrazide] |  | 20.8 | inactive |
| CCCSc1nc2ccccc2n1CC(=O)NN=Cc1ccc(N(CC)CC)cc1 [Compound 16, N′-(4-(Diethylamino)benzylidene)-2-(2-(propylthio)-1H-benzo[d]imidazol-1-yl)acetohydrazide] |  | 5.6 | inactive |
| CCCSc1nc2ccccc2n1CC(=O)NN=Cc1ccc(C)cc1 [Compound 19, N′-(4-Methylbenzylidene)-2-(2-(propylthio)-1H-benzo[d]imidazol-1-yl)acetohydrazide] |  | 13.6 | inactive |
| CCCSc1nc2ccccc2n1CC(=O)NN=Cc1ccc(O)c(OCC)c1 [Compound 20, N′-(3-Ethoxy-4-hydroxybenzylidene)-2-(2-(propylthio)-1H-benzo[d]imidazol-1-yl)acetohydrazide] | 45.5 ± 2.07 | 67.7 | least active inhibitors |
| CCCSc1nc2ccccc2n1CC(=O)NN=Cc1ccc(C=O)cc1 [Compound 21, N′-(4-Formylbenzylidene)-2-(2-(propylthio)-1H-benzo[d]imidazol-1-yl)acetohydrazide] |  | 42.2 | inactive |
| CCCSc1nc2ccccc2n1CC(=O)NN=Cc1ccc(C(C)C)cc1 [Compound 22, N′-(4-Isopropylbenzylidene)-2-(2-(propylthio)-1H-benzo[d]imidazol-1-yl)acetohydrazide] | 24.7 ± 3 | 90.1 |  |
| CCCSc1nc2ccccc2n1CC(=O)NN=Cc1cccs1 [Compound 23, 2-(2-(Propylthio)-1H-benzo[d]imidazol-1-yl)-N′-(thiophen-2-ylmethylene)acetohydrazide] | 24.8 ± 1.24 | 89.8 |  |
| CCCSc1nc2ccccc2n1CC(=O)NN=Cc1ccco1 [Compound 25, N′-(Furan-2-ylmethylene)-2-(2-(propylthio)-1H-benzo[d]imidazol-1-yl)acetohydrazide] | 193 ± 3.24 | 57.0 | least active inhibitors |
| CCCSc1nc2ccccc2n1CC(=O)NN=Cc1ccc(C)o1 [Compound 26, N′-((5-Methylfuran-2-yl)methylene)-2-(2-(propylthio)-1H-benzo[d]imidazol-1-yl)acetohydrazide] | 166 ± 1.61 | 67.8 | least active inhibitors |
| CCCSc1nc2ccccc2n1CC(=O)NN=Cc1c(Cl)cccc1Cl [Compound 28, N′-(2,6-Dichlorobenzylidene)-2-(2-(propylthio)-1H-benzo[d]imidazol-1-yl)acetohydrazide] | 42.1 ± 1.39 | 67.6 | least active inhibitors |

Reference: publication PMC8756595 (ACS Omega, 2021)
